The numbers were not newly measured in US20040092519A1, “New treatment for hot flashes” (priority 2002, published 2004), which cites them from elsewhere.

For data set [1] the following is noted: transdermal; some patients.
For data set [2] the following is noted: low doses; men and women.

In the case of `Clc1cccc(Cl)c1N=C1NCCN1` [clonidine], the side effects entry in data set [1] is “drowsiness, fatigue, and symptoms of low blood pressure”.

Turning to `CC(=O)O[C@]1(C(C)=O)CC[C@H]2[C@@H]3C=C(C)C4=CC(=O)CC[C@]4(C)[C@H]3CC[C@@]21C` [megestrol acetate], the “frequency of hot flashes” value in data set [2] was “reduce the frequency of hot flashes”.
